Measurements as given in patent US20250064990A1, “METHODS OF SCREENING FOR VMAT2 INHIBITORS” (Neurocrine Biosciences, Inc., priority 2021, published 2025).
Converted amounts (≈) assume the structure as drawn. Like-named read-outs stand apart in the source and are kept apart here.

Target: VMAT2 (Homo sapiens, UniProt Q05940)
Assay: VMAT2 target occupancy of single oral doses of NBI-750142 in healthy adult male subjects, [^18F]AV-133 PET
Assay type: in vivo
Set-up: from tissue; host or cells: brain (caudate, putamen, midbrain) of living healthy adult male subjects
Conditions: for [^18F]AV-133 BPND T2 / NBI-750142 T2 Occ: T2 (18 h post dose); for NBI-750142 T1 Occ / [^18F]AV-133 BPND T1: T1 ([…] post dose); for EC50: read-out: EC50 (NBI-750142 plasma concentration vs VMAT2 striatal occupancy) (converted)
Protocol: This study was conducted to evaluate the brain penetration and target engagement of VMAT2 after single oral doses of NBI-750142 in healthy subjects. This PET study assessed the engagement of NBI-750142 with VMAT2 in vivo at two time-points after dosing. A sequential-cohort design allowed for the safety, target-occupancy, and available pharmacokinetic (PK) data from each prior cohort to be evaluated before selection of the dose level for the next cohort. A range of NBI-750142 doses (max. 200 mg) were studied to explore the relationship between NBI-750142 plasma concentrations and engagement of VMAT2 in selected brain regions.
This was a Phase 1 single-center, open-label, single-dose, target occupancy study of NBI-750142 in up to 12 healthy male subjects using [^18F]AV-133 PET imaging. […] A total of 12 subjects completed the study. Subjects enrolled in the study were required to report to the clinical research site for 4 separate occasions, detailed below.
Two subjects were initially enrolled in each dose cohort. Each subject received one brain structural magnetic resonance imaging (MRI) scan during screening and up to 3 [^18F]AV-133 PET scans (1 baseline and up to 2 follow-up scans after receiving a single dose of NBI-750142). Subjects enrolled in the first cohort received a single dose of 100 mg of NBI-750142 orally on Day 1. PET scans occurred on Day 1 at approximately 1.5 hours post NBI-750142 dose and on Day 2 at approximately 18 hours post NBI-750142 dose. Subjects were then discharged from the study center after all Day 3 procedures and assessments were completed.
Subjects were administered a single dose of [^18F]AV-133 intravenously over 3 minutes using an infusion pump (approximately 3.33 mL per minute) through a venous catheter followed by a 10 mL saline flush. Dynamic PET imaging of the brain was acquired over 120 min following radiotracer injection on a Siemens Biograph 6 PET/CT camera according to the following protocol: • CT scan of the head • [^18F]AV-133 injection (T=0 min) • Emission scan: 6×30 sec, 4×1 min, 4×2 min, 21×5 min (0-120 min)
Reconstructed PET imaging data volumes were transferred to the image processing PMOD software package (PMOD Technologies, Zurich, Switzerland) where the images were motion and decay corrected, realigned onto the subject MRI and subsequently normalized into the standard MNI (Montreal Neurological Institute) space where volumes of interest (VOIs) were defined from a template (see e.g., Hammers et al, Adult brain maximum probability map (“Hammersmith atlas”; n30r83) in MNI space. 2008). The subject MRI was segmented into grey matter, white matter, and CSF maps. Average activity concentration (kBq/cc) within each VOI, constrained to grey matter voxels for cortical regions, were determined and time activity curves (TACs) were generated. TACs were extracted from the following VOIs: caudate and putamen (striatum), midbrain, cerebellar and occipital cortices. TACs and were expressed in standard uptake value (SUV) units (g/mL) by normalizing with the weight of the subject and the injected dose. The occipital cortex was used as a reference region to normalize activity in target regions to generate SUVr images. For visualization, standard uptake value ratio (SUVr) images were computed between 60-120 min. Non-displaceable binding potential (BPND), the primary outcome measure, was estimated with noninvasive Logan graphical analysis (NI-LGA, t*=20 min) in caudate, putamen and midbrain using the occipital cortex as the reference region. Percent measured occupancy (OM) of NBI-750142 (drug) by region was computed according to the Equation 3-1 at each of the post-dose timepoints, T1 (1.5 h post dose) and T2 (18 h post dose).
Post-hoc exploratory analysis applied an Upregulation model (Equation 3-3), in order to account for the apparent ‘negative occupancy’ values observed at T2 (BPND values at T2 were unexpectedly higher than corresponding BPND values at baseline). […]

[1] = Cohort 4, 60 mg, Subject 1, Midbrain
[2] = Cohort 4, 60 mg, Subject 1, Putamen
[3] = Cohort 4, 60 mg, Subject 2, Caudate
[4] = Cohort 4, 60 mg, Subject 2, Midbrain
[5] = Cohort 4, 60 mg, Subject 2, Putamen
[6] = Cohort 5A, 10 mg, Subject 1, Caudate (2nd line so labelled)
[7] = Cohort 5A, 10 mg, Subject 1, Caudate
[8] = Cohort 5A, 10 mg, Subject 1, Midbrain
[9] = Cohort 5A, 10 mg, Subject 2, Caudate (2nd line so labelled)
[10] = Cohort 5A, 10 mg, Subject 2, Caudate
[11] = Cohort 5A, 10 mg, Subject 2, Midbrain
[12] = Cohort 5B, 10 mg, Subject 3, Caudate
[13] = Cohort 5B, 10 mg, Subject 3, Midbrain
[14] = Cohort 5B, 10 mg, Subject 3, Putamen
[15] = Cohort 5B, 10 mg, Subject 4, Caudate
[16] = Cohort 5B, 10 mg, Subject 4, Midbrain
[17] = Cohort 5B, 10 mg, Subject 4, Putamen
[18] = Upregulation model, post hoc exploratory, both T1 and T2 data
[19] = average of caudate and putamen, 100 mg

VMAT2, sequence (Q05940 whole entry): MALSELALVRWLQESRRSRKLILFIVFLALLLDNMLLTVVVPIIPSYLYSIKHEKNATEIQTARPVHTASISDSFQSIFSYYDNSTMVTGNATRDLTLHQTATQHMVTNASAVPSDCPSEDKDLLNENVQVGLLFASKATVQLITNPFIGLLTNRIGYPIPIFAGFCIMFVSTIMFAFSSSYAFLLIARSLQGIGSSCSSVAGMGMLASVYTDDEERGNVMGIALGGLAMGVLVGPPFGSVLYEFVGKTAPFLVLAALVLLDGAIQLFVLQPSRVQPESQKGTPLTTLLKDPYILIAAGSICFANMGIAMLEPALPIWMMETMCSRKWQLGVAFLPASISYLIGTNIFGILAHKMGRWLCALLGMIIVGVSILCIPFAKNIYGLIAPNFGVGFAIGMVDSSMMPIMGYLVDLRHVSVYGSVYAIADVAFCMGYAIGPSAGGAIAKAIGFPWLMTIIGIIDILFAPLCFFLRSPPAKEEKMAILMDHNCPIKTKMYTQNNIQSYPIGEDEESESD

Compound: COc1cc2c(cc1OC)[C@H]1CN(C)[C@H](CC(C)(C)C)CN1CC2 [NBI-750142]
- [^18F]AV-133 BPND T2 (Cohort 4, 60 mg, Subject 1, Caudate): 1.69
- NBI-750142 T1 Occ [1]: 55%
- [^18F]AV-133 BPND T1 [1]: 0.20
- NBI-750142 T2 Occ [1]: −1%
- [^18F]AV-133 BPND T2 [1]: 0.44
- NBI-750142 T1 Occ [2]: 39%
- [^18F]AV-133 BPND T1 [2]: 1.10
- NBI-750142 T2 Occ [2]: −12%
- [^18F]AV-133 BPND T2 [2]: 2.01
- NBI-750142 T1 Occ [3]: 11%
- [^18F]AV-133 BPND T1 [3]: 1.26
- NBI-750142 T2 Occ [3]: −13%
- [^18F]AV-133 BPND T2 [3]: 1.61
- NBI-750142 T1 Occ [4]: 27%
- [^18F]AV-133 BPND T1 [4]: 0.28
- NBI-750142 T2 Occ [4]: −12%
- [^18F]AV-133 BPND T2 [4]: 0.42
- NBI-750142 T1 Occ [5]: 8%
- [^18F]AV-133 BPND T1 [5]: 1.73
- NBI-750142 T2 Occ [5]: −12%
- [^18F]AV-133 BPND T2 [5]: 2.09
- Occupancy at T2 in striatum (Cohort 4 at 60 mg, subject 1, 18 h post dose): −10%
- Occupancy at T2 in striatum (Cohort 4 at 60 mg, subject 2, 18 h post dose): −12%
- Occupancy at T2 in striatum (Cohort 5A at 10 mg, subject 1, 18 h post dose): −3%
- Occupancy at T2 in striatum (Cohort 5A at 10 mg, subject 2, 18 h post dose): −4%
- NBI-750142 T1 Occ [6]: 26%
- [^18F]AV-133 BPND T1 [6]: 1.76
- NBI-750142 T2 Occ [6]: −4%
- [^18F]AV-133 BPND T2 [6]: 2.48
- NBI-750142 T1 Occ [7]: 27%
- [^18F]AV-133 BPND T1 [7]: 1.14
- NBI-750142 T2 Occ [7]: −2%
- [^18F]AV-133 BPND T2 [7]: 1.58
- NBI-750142 T1 Occ [8]: 41%
- [^18F]AV-133 BPND T1 [8]: 0.31
- NBI-750142 T2 Occ [8]: 1%
- [^18F]AV-133 BPND T2 [8]: 0.52
- NBI-750142 T1 Occ [9]: 9%
- [^18F]AV-133 BPND T1 [9]: 2.88
- NBI-750142 T2 Occ [9]: −6%
- [^18F]AV-133 BPND T2 [9]: 3.34
- NBI-750142 T1 Occ [10]: 11%
- [^18F]AV-133 BPND T1 [10]: 1.98
- NBI-750142 T2 Occ [10]: −3%
- [^18F]AV-133 BPND T2 [10]: 2.29
- NBI-750142 T1 Occ [11]: 20%
- [^18F]AV-133 BPND T1 [11]: 0.43
- NBI-750142 T2 Occ [11]: −19%
- [^18F]AV-133 BPND T2 [11]: 0.65
- Occupancy at T2 in striatum (Cohort 5B at 10 mg, subject 3, 18 h post dose): −14%
- Occupancy at T2 in striatum (Cohort 5B at 10 mg, subject 4, 18 h post dose): 5%
- NBI-750142 T1 Occ [12]: −2%
- [^18F]AV-133 BPND T1 [12]: 2.51
- NBI-750142 T2 Occ [12]: −14%
- [^18F]AV-133 BPND T2 [12]: 2.81
- NBI-750142 T1 Occ [13]: 19%
- [^18F]AV-133 BPND T1 [13]: 0.40
- NBI-750142 T2 Occ [13]: −14%
- [^18F]AV-133 BPND T2 [13]: 0.56
- NBI-750142 T1 Occ [14]: −2%
- [^18F]AV-133 BPND T1 [14]: 2.90
- NBI-750142 T2 Occ [14]: −14%
- [^18F]AV-133 BPND T2 [14]: 3.25
- NBI-750142 T1 Occ [15]: −4%
- [^18F]AV-133 BPND T1 [15]: 2.35
- NBI-750142 T2 Occ [15]: 4%
- [^18F]AV-133 BPND T2 [15]: 2.16
- NBI-750142 T1 Occ [16]: 0%
- [^18F]AV-133 BPND T1 [16]: 0.52
- NBI-750142 T2 Occ [16]: −2%
- [^18F]AV-133 BPND T2 [16]: 0.53
- NBI-750142 T1 Occ [17]: −3%
- [^18F]AV-133 BPND T1 [17]: 3.03
- NBI-750142 T2 Occ [17]: 6%
- [^18F]AV-133 BPND T2 [17]: 2.75
- EC50 (Emax model, T1 occupancy values alone): 76.7 nM
- EC50 (NBI-750142 plasma concentration vs VMAT2 striatal occupancy) (Emax model, both T1 and T2 occupancy values): 0.0352 µg/mL (≈ 0.106 µM)
- upregulation factor (URF) (Upregulation model, both T1 and T2 data): 2.76
- EC50 (NBI-750142 plasma concentration vs VMAT2 striatal occupancy) [18]: 0.0063 µg/mL (≈ 0.0189 µM)
- EC50 [18]: 19.5 nM
- [^18F]AV-133 striatal uptake at T2 (across all cohorts): appeared to return to, or slightly exceed, baseline levels
- Occupancy in the striatum at T1, lower end of range (average of caudate and putamen, 10 mg): −4%
- Occupancy in the striatum at T1, upper end of range [19]: 76%
- Occupancy in the striatum at T2, upper end of range [19]: 14%
- Occupancy in the striatum at T2, lower end of range (average of caudate and putamen, 200 mg): −28%
